Assay: Degradation of the monomer followed with RP-HPLC
Type: physicochemical
Conditions: 37 °C
Procedure: Degradation of the monomer was followed with RP-HPLC at 37 °C. The relative peak areas of the monomer and its degradation product HPMA as a function of time are depicted in figure 1(A) for pH 10, 1(B) for pH 7.4 and 1(C) for pH 5.0.

half-life of the monomer (pH 5.0, RP-HPLC): 380 h
half-life of the monomer (pH 7.4, RP-HPLC): 9.6 h
half-life of the monomer (pH 10, RP-HPLC): 1.1 h
SMILES: C=C(C)C(=O)NCC(C)OC(=O)OCCN(C)C (stereo not drawn) [HPMA-DMAE]

Reference: patent EP1505089B1, “Cationic (alkyl)acrylamide derivative, polymer based on these derivates, and transfection system comprising said polymer” (OctoPlus Technologies B.V., priority 2003, dated 2005)
